Values of other authors, collected in patent US7579333B2 (Teva Pharmaceutical Industries Ltd., priority 2004, dated 2009).

Key:
[1] = in vivo
new vertebral fractures = settings: post-menopausal women with osteoporosis
[2] = test system: femoral bone mass density; settings: 1 year; 60 mg/day raloxifene, 10 mg/day alendronate; 331 patients

In the case of NCCCC(O)(P(=O)(O)O)P(=O)(O)O [alendronate], the “pH at which best absorbed” value [1] is given as ~6.
In the case of O=C(c1ccc(OCCN2CCCCC2)cc1)c1c(-c2ccc(O)cc2)sc2cc(O)ccc12 [raloxifene], the “decrease in incidence of new vertebral fractures” value (new vertebral fractures) is given as 30-50% and the “improvement in femoral bone mass density” value [2] is given as 1.7%.
